Source: article PMC11574108, “4-Furanylvinylquinoline derivative as a new scaffold for the design of oxidative stress initiator and glucose transporter inhibitor drugs” (Scientific Reports, 2024)

Legend:
[1] = tested on: GLUT-1; experiment: Western blot, GLUT-1 protein level; format: cell-based, human
Method: The cells (500,000) were seeded in 35 mm Petri dishes (Nunc) and incubated in a solution of the tested compound (0.5 µM and 1 µM) for 24 h and 48 h. The cells were then dissociated using trypsin, collected in Eppendorf tubes, and centrifuged at 2,000 rpm. Next, cell pellets were resuspended in complete RIPA buffer containing a Halt Protease Inhibitor Cocktail and Halt Phosphatase Inhibitor Cocktail along with 0.5 M EDTA (all reagents from Thermo Fisher Scientific) and lysed on ice for 20 min. Afterward, the lysates were sonicated and centrifuged at 10,000 rpm for 10 min at 4 °C. The obtained supernatants were collected for further analysis. The protein concentration was determined using a Micro BCA™ Protein Assay Kit (Thermo Fisher Scientific) according to the manufacturer’s procedure. Equal amounts of proteins (16 µg) were electrophoresed on SDS-Page gels and transferred onto nitrocellulose membranes. Novex Sharp Pre-Stained Protein Standard (Thermo Fisher Scientific) was used as a colored molecular weight marker. The membranes were blocked in 5% non-fat milk prepared in TPBS (PBS supplemented by 0.1% Tween-20) for 1 h. After blocking, the membranes were cut, and then incubated with specific primary monoclonal antibodies (all purchased from Cell Signaling) overnight at 4 °C. The antibodies for the target proteins (CDK1 Mouse mAb #9116, p53 Mouse mAb #2524, FAS Mouse mAb #8023, GLUT-1 Rabbit mAb #12939, HO-1 Rabbit mAb #5853, p21^Waf1/Cip1 Rabbit mAb #2947, PARP #9542) were diluted 1:1000, while the antibodies for the reference proteins (GAPDH Rabbit mAb #2118, β-actin Mouse mAb #3700, and vinculin Rabbit mAb #13901) were diluted 1:2000. The following day, the membranes were washed in TPBS and incubated with horseradish peroxidase (HRP)-conjugated secondary antibodies (Anti-rabbit IgG, HRP-linked Antibody #7074 or Anti-mouse IgG, HRP-linked Antibody #7076) for 1 h at room temperature. The membranes were then washed in TPBS and incubated with a SuperSignal™ West Pico Chemiluminescent Substrate (Thermo Fisher Scientific). Finally, the membranes were visualized using a ChemiDoc™ XRS + System (Bio-Rad). The experiments were carried out four to five times. The densitometric analysis was performed using ImageJ software (Wayne Rasband, National Institutes of Health, USA).
We, therefore, decided to test the effect of the tested compound on the level of the main glucose transporter, GLUT-1. […] The validity of the described conclusions was confirmed by the results that were obtained for doxorubicin. in which p53 activation occurred at both tested time points with a concomitant decrease in the GLUT-1 levels. […] The results that were obtained from the measurements of the expression of this protein were so interesting, and at the same time, inconclusive that we additionally decided to determine the effect of the tested derivative 13 on the expression of the genes encoding selected glucose transporters.

[2] = tested on: Fas; experiment: Western blot, Fas protein level; format: cell-based, human
Method: The cells (500,000) were seeded in 35 mm Petri dishes (Nunc) and incubated in a solution of the tested compound (0.5 µM and 1 µM) for 24 h and 48 h. The cells were then dissociated using trypsin, collected in Eppendorf tubes, and centrifuged at 2,000 rpm. Next, cell pellets were resuspended in complete RIPA buffer containing a Halt Protease Inhibitor Cocktail and Halt Phosphatase Inhibitor Cocktail along with 0.5 M EDTA (all reagents from Thermo Fisher Scientific) and lysed on ice for 20 min. Afterward, the lysates were sonicated and centrifuged at 10,000 rpm for 10 min at 4 °C. The obtained supernatants were collected for further analysis. The protein concentration was determined using a Micro BCA™ Protein Assay Kit (Thermo Fisher Scientific) according to the manufacturer’s procedure. Equal amounts of proteins (16 µg) were electrophoresed on SDS-Page gels and transferred onto nitrocellulose membranes. Novex Sharp Pre-Stained Protein Standard (Thermo Fisher Scientific) was used as a colored molecular weight marker. The membranes were blocked in 5% non-fat milk prepared in TPBS (PBS supplemented by 0.1% Tween-20) for 1 h. After blocking, the membranes were cut, and then incubated with specific primary monoclonal antibodies (all purchased from Cell Signaling) overnight at 4 °C. […]

[3] = tested on: tested cancer lines; experiment: Antiproliferative MTS assay, summary over the panel; format: cell-based; details: Homo sapiens; against most of the tested cancer lines
Method: (§1) The cells were seeded in 96-well plates (Nunc) with 5,000 or 4,000 cells per well for the cancer cells and NHDF, respectively, and incubated under standard conditions at 37 °C overnight. The culture media were then changed for freshly prepared solutions of the tested compounds in various concentrations. After 72-h incubation the antiproliferative assay was carried out as follows: the solutions of the compounds were changed in each well to 100 µL DMEM without phenol red and 20 µL of CellTiter 96 AQueous One Solution-MTS (Promega). The plates were incubated for 1 h at 37 °C, and the absorbance was then measured at 490 nm using a multi-plate reader (Synergy 4, BioTek). The experiment for each sample was repeated at least three times. The results are presented as the half-maximal inhibitory concentration (IC50) values, which were estimated in comparison to untreated cells (control) and calculated using GraphPad Prism v.8.0 (USA).
However, the antiproliferative activity of derivative 13 with furan a ring was surprising. […] For this purpose, we selected two pancreatic cancer cell lines: AsPC-1, which is characterised by a deletion of the p53 protein[20] and PANC-1, which carries an R273H mutation. […] In light of the above-mentioned facts, we also determined the cytotoxicity of the GLUT inhibitor BAY-876, which is based on a quinoline scaffold. […]

[4] = tested on: AsPC-1; experiment: Monolayer antiproliferative MTS assay; format: cell-based, human; details: 2D monolayer; for IC50: MTS, 72-h incubation
Method: as §1
(§2) However, the antiproliferative activity of derivative 13 with furan a ring was surprising. […] For this purpose, we selected two pancreatic cancer cell lines: AsPC-1, which is characterised by a deletion of the p53 protein[20] and PANC-1, which carries an R273H mutation. This mutation also occurred in the glioblastoma U-251 cell line[22],[23]. An additional non-adherent line that carries the TP53 mutation that results in the absence of p53 is the K562 leukemic cell line[24]. […] Moreover, 13 was selective toward […], as indicated by its SI values (3.35–9.41). Among all of the tested cell lines, the highest activity of the compound was found against the HCT 116 cells with the wild-type p53 protein (0.069 µM). […] The p53 protein also interacts with the metabolic pathways that are associated with glucose transport[25] as well as small molecules. In light of the above-mentioned facts, we also determined the cytotoxicity of the GLUT inhibitor BAY-876, which is based on a quinoline scaffold. […] Furthermore, BAY-876 was also toxic to normal cells.

[5] = tested on: PANC-1; experiment: Monolayer antiproliferative MTS assay; format: cell-based, human; details: 2D monolayer; for IC50: MTS, 72-h incubation
Method: as §1, §2

SMILES: O=[N+]([O-])c1ccc(/C=C/c2ccnc3ccccc23)o1 [Compound 13]
- GLUT-1 protein level vs control ([1]; HCT 116 p53+/+, 24-h incubation): decrease
- GLUT-1 protein level vs control ([1]; HCT 116 p53+/+, 48-h): rapid activation
- GLUT-1 protein level vs control ([1]; HCT 116 p53-/-): decrease
- GLUT-1 protein level vs untreated cells ([1]; U-251): not detectable
- Fas protein level vs control ([2]; HCT 116 p53+/+, 24-h): more than three-fold increase
- Fas protein expression vs untreated cells ([2]; HCT 116 p53-/-, 48-h): four times higher
- IC50 [3]: < 100 nM
- IC50 [4]: 123 ± 7 nM
- SI (selectivity index) AsPC-1 ([4]; relative to NHDF): 5.28
- IC50 ([4]; Homo sapiens, ASPC1, 72 h): ≤ 200 nM
- IC50 [5]: 193 ± 8 nM
- SI (selectivity index) PANC-1 ([5]; relative to NHDF): 3.36
- IC50 ([5]; Homo sapiens, PANC-1, 72 h): ≤ 200 nM
